Assay: in vitro
Settings: human, hela cells, % viability
COc1ccc(C(C)C)cc1-c1cnc2[nH]c(=O)n(C3CC3)c2n1 [CBK064915] showed a viability at 28.5 h, 10 µM of 91.2%.
For O=C(NC1CC1)c1ccc(-c2cnc3[nH]c(=O)n(-c4ccc5[nH]ccc5c4)c3n2)cc1 [CBK064916], the viability at 28.5 h, 10 µM was 103%.
In the case of O=c1[nH]c2ncc(-c3ccc4c(c3)OCO4)nc2n1C1CC1 [CBK064922], the viability at 28.5 h, 10 µM is reported as 98.5%.
COCCCn1c(=O)[nH]c2ncc(-c3cccnc3)nc21 [CBK064929] gave a viability at 28.5 h, 10 µM of 104%.
In the case of NS(=O)(=O)c1ccc(Cn2c(=O)[nH]c3ncc(-c4ccco4)nc32)cc1 [CBK064948], the viability at 28.5 h, 10 µM is reported as 96.8%.
Work on CN(C)CCNC(=O)c1ccc(-c2cnc3[nH]c(=O)n(C4CCCC4)c3n2)cc1 [CBK064957] yielded a viability at 28.5 h, 10 µM of 110%.
In the case of COc1ccc(C(C)C)cc1-c1cnc2[nH]c(=O)n([C@H](CO)C(C)C)c2n1 [CBK064962], the viability at 28.5 h, 10 µM is reported as 96.2%.
CCCC/C=C/c1cnc2[nH]c(=O)n([C@H](CO)C(C)C)c2n1 [CBK064970] showed a viability at 28.5 h, 10 µM of 95%.
O=c1[nH]c2ncc(-c3ccncc3)nc2n1C1CCCC1 [CBK064972] gave a viability at 28.5 h, 10 µM of 116%.
Work on O=c1[nH]c2ncc(-c3ccoc3)nc2n1C1CCOCC1 [CBK064973] yielded a viability at 28.5 h, 10 µM of 119%.
With COc1cncc(-c2cnc3[nH]c(=O)n([C@H](CO)C(C)C)c3n2)c1 [CBK064977] the viability at 28.5 h, 10 µM was 107%.
For C[C@H](c1ccccc1)n1c(=O)[nH]c2ncc(-c3cccc(/C=C/C(=O)O)c3)nc21 [CBK064983], the viability at 28.5 h, 10 µM was 83.4%.
Work on CC(C)[C@H](CO)n1c(=O)[nH]c2ncc(-c3cccc4ccccc34)nc21 [CBK064985] yielded a viability at 28.5 h, 10 µM of 104%.
Work on CC(C)[C@H](CO)n1c(=O)[nH]c2ncc(-c3cccc(CO)c3)nc21 [CBK065001] yielded a viability at 28.5 h, 10 µM of 96.1%.
Compound COc1ccc(-c2cnc3[nH]c(=O)n([C@H](CO)C(C)C)c3n2)c(OC)c1OC [CBK065008] has a viability at 28.5 h, 10 µM of 99.1%.
CC(C)Cn1c(=O)[nH]c2ncc(-c3ccc(O)cc3)nc21 [CBK065011] gave a viability at 28.5 h, 10 µM of 105%.
COc1ccc(-n2c(=O)[nH]c3ncc(-c4ccco4)nc32)c(C)c1 [CBK065019] gave a viability at 28.5 h, 10 µM of 101%.
For O=c1[nH]c2ncc(-c3cccc(Br)c3)nc2n1Cc1ccccn1 [CBK065020], the viability at 28.5 h, 10 µM was 101%.
CN(C)CCn1c(=O)[nH]c2ncc(-c3cc(C(F)(F)F)cc(C(F)(F)F)c3)nc21 [CBK065028] gave a viability at 28.5 h, 10 µM of 112%.
With O=C(NCCO)c1cccc(-c2cnc3[nH]c(=O)n(Cc4ccccn4)c3n2)c1 [CBK065034] the viability at 28.5 h, 10 µM was 96.5%.
Work on COc1cccc(-c2cnc3[nH]c(=O)n(CCCO)c3n2)c1 [CBK065036] yielded a viability at 28.5 h, 10 µM of 93.3%.
For O=C(NC1CCCC1)c1ccc(-c2cnc3[nH]c(=O)n(Cc4ccc(Cl)cc4)c3n2)cc1 [CBK065039], the viability at 28.5 h, 10 µM was 94.7%.
With O=C(NCCO)c1ccc(-c2cnc3[nH]c(=O)n(C4CCOCC4)c3n2)cc1 [CBK065041] the viability at 28.5 h, 10 µM was 108%.
COCCCn1c(=O)[nH]c2ncc(-c3cccc(C(=O)NCCO)c3)nc21 [CBK065042] gave a viability at 28.5 h, 10 µM of 118%.
In the case of CC(C)[C@H](CO)n1c(=O)[nH]c2ncc(-c3cccc(/C=C/C(=O)O)c3)nc21 [CBK065051], the viability at 28.5 h, 10 µM is reported as 92.5%.
Compound CS(=O)(=O)Nc1cccc(-c2cnc3[nH]c(=O)n(Cc4ccc(S(C)(=O)=O)cc4)c3n2)c1 [CBK065061] has a viability at 28.5 h, 10 µM of 98.6%.
CN(C)CCNC(=O)c1cccc(-c2cnc3[nH]c(=O)n(Cc4ccc(S(C)(=O)=O)cc4)c3n2)c1 [CBK065069] gave a viability at 28.5 h, 10 µM of 109%.
With O=C(O)/C=C/c1cccc(-c2cnc3[nH]c(=O)n(C4CC4)c3n2)c1 [CBK065091] the viability at 28.5 h, 10 µM was 93.5%.
For O=c1[nH]c2ncc(-c3cncc4ccccc34)nc2n1Cc1ccccc1 [CBK065113], the viability at 28.5 h, 10 µM was 99.1%.
With COc1ncc(-c2cncc(N3CCN(c4ccc(OC)c(OC)c4)CC3)n2)c(OC)n1 [CBK065169] the viability at 28.5 h, 10 µM was 89.5%.
In the case of COc1ccc(C(C)C)cc1-c1cncc(NCCc2c[nH]c3ccccc23)n1 [CBK065174], the viability at 28.5 h, 10 µM is reported as 96.5%.
COc1cc(Nc2cncc(-c3ccc4ccccc4c3)n2)cc(OC)c1OC [CBK065176] gave a viability at 28.5 h, 10 µM of 61.7%.
With c1cncc(-c2cncc(NCCc3c[nH]c4ccccc34)n2)c1 [CBK065186] the viability at 28.5 h, 10 µM was 89.7%.
For CC(C)c1ccc(-c2cncc(NCCCN3CCOCC3)n2)cc1 [CBK065196], the viability at 28.5 h, 10 µM was 97.7%.
For COc1ccc(C(C)C)cc1-c1cncc(NCC(C)(C)CO)n1 [CBK065206], the viability at 28.5 h, 10 µM was 106%.
For COc1ncc(-c2cncc(NCc3cccc(Cl)c3)n2)c(OC)n1 [CBK065211], the viability at 28.5 h, 10 µM was 106%.
COc1cc(-c2cncc(Nc3cccc(C(F)(F)F)c3)n2)cc(OC)c1OC [CBK065213] gave a viability at 28.5 h, 10 µM of 120%.
CN(C)CCNC(=O)c1cccc(-c2cncc(Nc3cccc(Cl)c3)n2)c1 [CBK065229] showed a viability at 28.5 h, 10 µM of 104%.
In the case of Clc1ccc(Nc2cncc(-c3cccnc3)n2)cc1 [CBK065234], the viability at 28.5 h, 10 µM is reported as 105%.
For COc1cc(-c2cncc(NCc3ccco3)n2)cc(OC)c1OC [CBK065259], the viability at 28.5 h, 10 µM was 99.9%.
For Nc1cccc(-c2cncc(Nc3ccccc3)n2)c1 [CBK065265], the viability at 28.5 h, 10 µM was 96.2%.
In the case of COc1cc(-c2cncc(NCCCO)n2)cc(OC)c1OC [CBK065271], the viability at 28.5 h, 10 µM is reported as 95.5%.
Compound COc1cc(Nc2cncc(-c3cccc(F)c3)n2)cc(OC)c1OC [CBK065272] has a viability at 28.5 h, 10 µM of 93%.
CCC(CO)Nc1cncc(-c2cccc(N)c2)n1 (stereo not shown) [CBK065278] showed a viability at 28.5 h, 10 µM of 103%.
Compound COc1ncc(-c2cncc(Nc3ccccc3)n2)c(OC)n1 [CBK065282] has a viability at 28.5 h, 10 µM of 100%.
Clc1cccc(CNc2cncc(-c3cccnc3)n2)c1 [CBK065283] gave a viability at 28.5 h, 10 µM of 104%.
In the case of COc1ccc(C(C)C)cc1-c1cncc(Nc2ccc(Cl)cc2)n1 [CBK065285], the viability at 28.5 h, 10 µM is reported as 108%.
Compound COc1ncc(-c2cncc(N3CCCN(C)CC3)n2)c(OC)n1 [CBK065286] has a viability at 28.5 h, 10 µM of 104%.
Work on CCCC/C=C/c1cncc(NCc2cccc(Cl)c2)n1 [CBK065293] yielded a viability at 28.5 h, 10 µM of 97.3%.
In the case of CN1CCCN(c2cncc(-c3ccc(F)c(Cl)c3)n2)CC1 [CBK065297], the viability at 28.5 h, 10 µM is reported as 96.4%.
COc1cc(-c2cncc(N(C)CCN(C)C)n2)cc(OC)c1OC [CBK065312] gave a viability at 28.5 h, 10 µM of 90.5%.
For c1cncc(-c2cncc(NCc3ccc4c(c3)OCO4)n2)c1 [CBK065313], the viability at 28.5 h, 10 µM was 94.6%.
With CCNc1cncc(-c2ccc(F)c(Cl)c2)n1 [CBK065322] the viability at 28.5 h, 10 µM was 101%.
With Clc1cccc(-c2cncc(NCc3ccc4c(c3)OCO4)n2)c1 [CBK065323] the viability at 28.5 h, 10 µM was 94.8%.
For CC(C)[C@H](CO)Nc1cncc(-c2ccccc2CO)n1 [CBK065326], the viability at 28.5 h, 10 µM was 88.6%.
COc1cncc(-c2cncc(N[C@H](CO)C(C)C)n2)c1 [CBK065329] showed a viability at 28.5 h, 10 µM of 106%.
With OCc1ccccc1-c1cncc(N2CCCC2CO)n1 (stereo not shown) [CBK065333] the viability at 28.5 h, 10 µM was 106%.
Work on CCNc1cncc(-c2cc(OC)c(OC)c(OC)c2)n1 [CBK065336] yielded a viability at 28.5 h, 10 µM of 99.1%.
Fc1ccc(-c2cncc(NCc3ccncc3)n2)cc1Cl [CBK065343] gave a viability at 28.5 h, 10 µM of 94.7%.
Work on CC(C)c1ccc(-c2cncc(NCc3cccc(Cl)c3)n2)cc1 [CBK065347] yielded a viability at 28.5 h, 10 µM of 106%.
Work on CCNc1cncc(-c2cncc(OC)c2)n1 [CBK065366] yielded a viability at 28.5 h, 10 µM of 91.9%.
Compound CCNc1cncc(-c2ccc(OC)cc2)n1 [CBK065370] has a viability at 28.5 h, 10 µM of 92.1%.
Work on CCCC/C=C/c1cncc(N(C)CCN(C)C)n1 [CBK065374] yielded a viability at 28.5 h, 10 µM of 91.1%.
In the case of CC(C)(CO)CNc1cncc(-c2ccc(O)cc2)n1 [CBK065386], the viability at 28.5 h, 10 µM is reported as 113%.

— paper PMC12040169 (PLOS Biology, 2025)
